Source: patent US8278300B2, “Use for PDE5 inhibitors” (Nycomed GmbH, priority 2004, dated 2012)

Assays:
pulmonary circulation = experiment: Pulmonary haemodynamics in patients with chronic pulmonary hypertension; type: in vivo, human; conditions: inhaled iloprost, oral sildenafil
[1] = tested on: cerebral blood flow within the posterior cerebral artery; experiment: Transcranial Doppler of visually stimulated cerebral blood flow in pulmonary hypertension patients; type: in vivo, human; conditions: for cerebral microvascular reactivity: patients with chronic pulmonary hypertension
Description: It has been shown—contrary to the skilled person's expectation, that the vasodilating effect achieved with a PDE5 inhibitor extends to the improvement of the kinetics in blood flow changes upon stimulation of the cortex by utilizing a visual stimulation paradigm. This could be shown by using the doppler-ultrasound technology which can measure the heart-beat dependent pulsatile blood flow within the basale cerebral vasculature with very high resolution. With a standard visual stimulation the Doppler is able by insonate the posterior cerebral artery to measure the activity-dependent blood-flow-regulation. [Rosengarten et al. (2001) Neurovascular coupling in terms of a control system: validation of a second-order linear system model. Ultrasound Med. Biol. 27: 631-5; Babikian et al. (2000) Transcranial Doppler ultrasonography: year 2000 update. J Neuroimaging 10: 101-115]
A pharmaceutical preparation comprising a PDE5 inhibitor can be used to treat patients with primary and secondary pulmonary hypertension. […] The hemodynamics aspects of the cerebral blood flow modulation can be described by a mathematical model (see Rosengarten et al., Headache 2003; 43: 458-463). This cited model contains a parameter T which defines the initial fast responding properties of the blood flow upon visual stimulation and three parameters (K, ζ and ω) which define the delayed adjustment of the […] blood flow. T is called the hold-back-time or rate time, K is the gain (which means change in blood flow velocity upon visual stimulation),ζ the attenuation (which represents the dampening due to vessel wall attenuation) and ω the natural frequency (represents the oscillating properties in dynamic neurovascular coupling). Patients with primary and secondary pulmonary hypertension display a pulmonary disturbance between ventilation of the alveoli and their perfusion. Such a demand-dependent inadequate perfusion has also been shown for the vasculature near the muscles. In this invention it is shown that patients with pulmonary hypertension display an increase in the rate time (meaning T is larger) and an enhanced attenuation ζ of the cerebral blood flow within the posterior cerebral artery upon visual stimulation. Thus it is shown that the mentioned disturbed micro-perfusion observed in patients with pulmonary hypertension extents to that of the brain. […] In addition the pro-longed hold-back time (rate time) in the patients is shortened by treatment with the PDE5-inhibitor sildenafil. This measurements have been performed 1 h after sildenafil intake but all responses to oral sildenafil outlasted 120-150 min.
In contrast to sildenafil iloprost treatment (2,8 μg inhaled in 4 min) worsens the impaired rate time and attenuation in patients with pulmonary hypertension (FIG. 1).
FIG. 1. Assessment of cerebral flow characteristics. Values for rate time and attenuation are presented in this graph. Medians (filled circles) and 95% confidence intervals (bars) are given for healthy controls, and patients at baseline (untreated), after iloprost inhalation, and subsequent to oral sildenafil intake. Statistical differences were assessed by ANOVA (p-values indicate significant differences between groups). Fisher's post hoc test was calculated at a significance level of p<0.05;

stroke in rats = conditions: cited from earlier work
[2] = tested on: epicardial coronary arteries; conditions: patients with coronary artery disease; cited from earlier work
[3] = tested on: rats with LPS-induced sepsis; experiment: LPS-induced sepsis in anaesthetized rats: sensoric evoked potentials and evoked cerebral blood flow; type: in vivo, rat; conditions: 4½ h after inducing sepsis with LPS
Description: Modulation of the cerebral blood flow evoked by repetitive electrical stimulation of the sole of one foot of the rats is measured by Doppler ultrasound technology as well as the sensoric evoked neuronal potentials (SEPs) by EEG. Baseline measurements are performed before application of LPS to the rats to induce sepsis.

[4] = patients with pulmonary hypertension, iloprost 2,8 μg inhaled in 4 min

| SMILES | pulmonary arterial pressure (pulmonary circulation) | pulmonary vascular resistance (pulmonary circulation) | cerebral microvascular reactivity [1] | attenuation of cerebral blood flow upon visual stimulation [1, 4] | rate time of cerebral blood flow upon visual stimulation [1, 4] | functional recovery after stroke (stroke in rats) | neurogenesis after stroke (stroke in rats) | relaxation of epicardial coronary arteries [2] | stimulus induced cerebral blood flow ([3]; Doppler ultrasound) | amplitude of the SEP (sensoric evoked neuronal potentials) ([3]; electrical stimulation of one foot) | duration of responses to oral sildenafil ([1]; patients with pulmonary hypertension, 50 mg oral) [min] | hold-back time (rate time) T of cerebral blood flow upon visual stimulation ([1]; patients with pulmonary hypertension, sildenafil 50 mg, oral, 1 h after intake) | attenuation parameter ζ of cerebral blood flow upon visual stimulation ([1]; patients with pulmonary hypertension, sildenafil 50 mg, oral, one hour before measurement) |
| --- | --- | --- | --- | --- | --- | --- | --- | --- | --- | --- | --- | --- | --- |
| CC#CCC(C)[C@H](O)/C=C/[C@@H]1[C@H]2C/C(=C/CCCC(=O)O)C[C@H]2C[C@H]1O (stereo partly shown) [iloprost] | significant reduction | significant reduction | gradually worsened | worsens | worsens | – | – | – | – | – | – | – | – |
| CCCc1nn(C)c2c(=O)[nH]c(-c3cc(S(=O)(=O)N4CCN(C)CC4)ccc3OCC)nc12 [sildenafil, 5-[2-ethoxy-5-(4-methylpiperazin-1-ylsulfonyl)phenyl]-1,6-dihydro-1-methyl-3-propylpyrazolo[4,3-d]pyrimidin-7-one] | significant reduction | significant reduction | significantly improved | – | – | promotes functional recovery | induces neurogenesis | relax epicardial coronary arteries | greatly restores | greatly restores | 120 to 150 | shortened | significantly reduced |
